From patent publication US8865714B2, “Piperazine compound capable of inhibiting prostaglandin D synthase” (Taiho Pharmaceutical Co., Ltd., priority 2009, dated 2014)
Where two headings read alike, the source gives them in different places.

Target: human H-PGDS (Homo sapiens (Human), UniProt O60760)
Assay: Hematopoietic prostaglandin D synthase (H-PGDS) inhibiting action
Type: biochemical
Conditions: for H-PGDS inhibition rate (%) / inhibition at 0.1 µM: compound at 0.1 μM, relative to the control group; for inhibition at 0.1 µM: read-out: H-PGDS inhibition rate (%)
Experimental: More specifically, the reaction mixture (49 μL) containing 100 mM Tris-HCl (pH 8.0), 1 mM reduced glutathione, 0.1 mg/mL γ-globulin, and human H-PGDS (q.s.), and a compound (final concentration: 0.01-100 μM) was preincubated at 25° C. for 5 minutes. Note that a DMSO solution (final concentration: 1%) was added to the solvent control group. Subsequently, 1 μL of [14C] prostaglandin H2 (final concentration: 10 μM) was added to start the reaction. One minute after the start of the reaction, 250 μL of a reaction stopper solution (diethylether/methanol/1 M citric acid (30/4/1) at a temperature of −20° C. was added to stop the reaction. After the reaction was stopped, 50 μL of the upper layer portion (organic solvent phase) was applied to a TLC plate and developed at −20° C. for 45 minutes (developing solvent: diethylether/methanol/acetic acid (90/2/1)). After drying the TLC plate, the TLC plate was exposed to an imaging plate for 1 to 24 hours, and the radioactivity corresponding to prostaglandin D2 (PGD2) was analyzed using an image analyzer (produced by Fujifilm Corporation).

[1] = human H-PGDS, [14C] prostaglandin H2 10 μM
[2] = human H-PGDS, [14C] prostaglandin H2 10 μM, read-out: IC50

Chain of human H-PGDS (O60760 whole entry): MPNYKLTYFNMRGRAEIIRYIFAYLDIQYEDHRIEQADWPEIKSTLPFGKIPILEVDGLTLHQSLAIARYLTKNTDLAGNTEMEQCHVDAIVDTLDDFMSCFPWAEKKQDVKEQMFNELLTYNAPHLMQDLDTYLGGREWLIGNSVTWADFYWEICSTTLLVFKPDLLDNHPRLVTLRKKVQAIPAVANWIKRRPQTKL

Compound | inhibition at 0.1 µM [1] [%] | H-PGDS inhibition rate (%) [1] [%] | IC50 [2] [nM] | IC50 [nM]
4-((1-ethylpyrrol-2-yl)-carbonyl)-N-(4-(4-morpholin-1-yl-carbonylpiperidin-1-yl)-phenyl)-1-piperazinecarboxamide [Example 13] |  | 51.8 | 91 | 
4-((1-methylindol-2-yl)-carbonyl)-N-(4-(4-morpholin-1-yl-carbonylpiperidin-1-yl)-phenyl)-1-piperazinecarboxamide [Reference Example 12] |  | −0.4 | > 1000 | 
4-((1-methylpyrrol-2-yl)-carbonyl)-N-(4-(4-(3-(1,2,4-triazol-1-yl-propyl)piperidin-1-yl)-phenyl)-1-piperazinecarboxamide [Example 11] |  | 71.3 | 46 | 
4-((((1-methylpyrrol-2-yl)-carbonyl)-1-piperazinyl)carbonyl)amino-4-phenylpiperidine-4-carboxylic acid [Example 2] |  | 53.7 | 86 | 
Cn1cccc1C(=O)N1CCN(C(=O)Nc2ccc(N3CCC(O)CC3)cc2)CC1 [Example 1, N-(4-(4-hydroxypiperidin-1-yl)-phenyl)-4-((1-methylpyrrol-2-yl)-carbonyl)-1-piperazinecarboxamide] | 62.2 |  | 58 | 
Cn1ccc(C(=O)N2CCN(C(=O)Nc3ccc(N4CCC(C(=O)N5CCOCC5)CC4)cc3)CC2)c1 [Reference Example 3, 4-((1-methylpyrrol-3-yl)-carbonyl)-N-(4-(4-morpholin-1-yl-carbonylpiperidin-1-yl)-phenyl)-1-piperazinecarboxamide] |  | −4.8 | > 1000 | 
O=C(Nc1ccc(N2CCC(C(=O)N3CCOCC3)CC2)cc1)N1CCN(C(=O)c2cccs2)CC1 [Reference Example 4, 4-((thiophen-2-yl)-carbonyl)-N-(4-(4-morpholin-1-yl-carbonylpiperidin-1-yl)-phenyl)-1-piperazinecarboxamide] |  | 18.0 | 340 | 
O=C(Nc1ccc(N2CCC(C(=O)N3CCOCC3)CC2)cc1)N1CCN(C(=O)c2ccsc2)CC1 [Reference Example 5, 4-((thiophen-3-yl)-carbonyl)-N-(4-(4-morpholin-1-yl-carbonylpiperidin-1-yl)-phenyl)-1-piperazinecarboxamide] |  | 9.4 | 732 | 
O=C(Nc1ccc(N2CCC(C(=O)N3CCOCC3)CC2)cc1)N1CCN(C(=O)c2ccco2)CC1 [Reference Example 6, 4-((furan-2-yl)-carbonyl)-N-(4-(4-morpholin-1-yl-carbonylpiperidin-1-yl)-phenyl)-1-piperazinecarboxamide] |  | −2.7 | > 1000 | 
O=C(Nc1ccc(N2CCC(C(=O)N3CCOCC3)CC2)cc1)N1CCN(C(=O)c2ccoc2)CC1 [Reference Example 7, 4-((furan-3-yl)-carbonyl)-N-(4-(4-morpholin-1-yl-carbonylpiperidin-1-yl)-phenyl)-1-piperazinecarboxamide] |  | −4.2 | > 1000 | 
O=C(Nc1ccc(N2CCC(C(=O)N3CCOCC3)CC2)cc1)N1CCN(C(=O)c2ccno2)CC1 [Reference Example 8, 4-((isoxazol-5-yl)-carbonyl)-N-(4-(4-morpholin-1-yl-carbonylpiperidin-1-yl)-phenyl)-1-piperazinecarboxamide] |  | −6.6 | > 1000 | 
Cn1ccnc1C(=O)N1CCN(C(=O)Nc2ccc(N3CCC(C(=O)N4CCOCC4)CC3)cc2)CC1 [Reference Example 9, 4-((1-methylimidazol-2-yl)-carbonyl)-N-(4-(4-morpholin-1-yl-carbonylpiperidin-1-yl)-phenyl)-1-piperazinecarboxamide] |  | −2.8 | > 1000 | 
O=C(Nc1ccc(N2CCC(C(=O)N3CCOCC3)CC2)cc1)N1CCN(C(=O)C2CCCC2)CC1 [Reference Example 10, 4-(cyclopentylcarbonyl)-N-(4-(4-morpholin-1-yl-carbonylpiperidin-1-yl)-phenyl)-1-piperazinecarboxamide] |  | −2.2 | > 1000 | 
O=C(Nc1ccc(N2CCC(C(=O)N3CCOCC3)CC2)cc1)N1CCN(C(=O)c2ccccc2)CC1 [Reference Example 11, 4-(benzoyl)-N-(4-(4-morpholin-1-yl-carbonylpiperidin-1-yl)-phenyl)-1-piperazinecarboxamide] |  | 15.8 | 437 | 
O=C(Nc1ccc(C(F)(F)F)cc1)N1CCN(C(=O)c2cccc(F)n2)CC1 [Reference Example 18, 4-(6-fluoropyridine-2-carbonyl)piperazine-1-carboxylic acid-(4-trifluoromethylphenyl)amide] |  |  |  | > 1000

Continued, in another order:

inhibition at 0.1 µM [1] [%] | Compound | H-PGDS inhibition rate (%) [1] [%] | IC50 [2] [nM] | IC50 [nM]
61.5 | Cn1cccc1C(=O)N1CCN(C(=O)Nc2ccc(N3CCC(CN4CCOCC4)CC3)cc2)CC1 [Example 4, 4-((1-methylpyrrol-2-yl)-carbonyl)-N-(4-(4-morpholinomethylpiperidin-1-yl)-phenyl)-1-piperazinecarboxamide] |  |  | 
55.5 | Cn1cccc1C(=O)N1CCN(C(=O)Nc2ccc(N3CCC(CCn4cncn4)C3)cc2)CC1 (stereo not drawn) [Example 5, 4-((1-methylpyrrol-2-yl)-carbonyl)-N-(4-(3-(2-(1,2,4-triazol-1-yl)-ethyl)pyrrolidin-1-yl)-phenyl)-1-piperazinecarboxamide] |  |  | 
68.3 | Cn1cccc1C(=O)N1CCN(C(=O)Nc2ccc(N3CCC(CCN4CCOCC4)CC3)cc2)CC1 [Example 6, 4-((1-methylpyrrol-2-yl)-carbonyl)-N-(4-(4-morpholinoethylpiperidin-1-yl)-phenyl)-1-piperazinecarboxamide] |  |  | 
66.7 | Cn1cccc1C(=O)N1CCN(C(=O)Nc2ccc(N3CCC(CCn4ccnn4)CC3)cc2)CC1 [Example 7, 4-((1-methylpyrrol-2-yl)-carbonyl)-N-(4-(4-(2-(1,2,3-triazol-1-yl)-ethyl)piperidin-1-yl)-phenyl)-1-piperazinecarboxamide] |  |  | 
58.9 | Cn1cccc1C(=O)N1CCN(C(=O)Nc2ccc(N3CCC(CCn4cncn4)CC3)cc2)CC1 [Example 8, 4-((1-methylpyrrol-2-yl)-carbonyl)-N-(4-(4-(2-(1,2,4-triazol-1-yl)-ethyl)piperidin-1-yl)-phenyl)-1-piperazinecarboxamide] |  | 62 | 
54.8 | Cc1nc(C)n(CCC2CCN(c3ccc(NC(=O)N4CCN(C(=O)c5cccn5C)CC4)cc3)CC2)n1 [Example 9, 4-((1-methylpyrrol-2-yl)-carbonyl)-N-(4-(4-(2-(3,5-dimethyl-1,2,4-triazol-1-yl)-ethyl)piperidin-1-yl)-phenyl)-1-piperazinecarboxamide] |  |  | 
74.3 | Cn1cccc1C(=O)N1CCN(C(=O)Nc2ccc(N3CCC(CCn4cccn4)CC3)cc2)CC1 [Example 10, 4-((1-methylpyrrol-2-yl)-carbonyl)-N-(4-(4-(2-(pyrazol-1-yl)-ethyl)piperidin-1-yl)-phenyl)-1-piperazinecarboxamide] |  |  | 
72.7 | Cn1cccc1C(=O)N1CCN(C(=O)Nc2ccc(N3CCC(CCCn4ccnn4)CC3)cc2)CC1 [Example 12, 4-((1-methylpyrrol-2-yl)-carbonyl)-N-(4-(4-(3-(1,2,3-triazol-1-yl)-propyl)piperidin-1-yl)-phenyl)-1-piperazinecarboxamide] |  |  | 
73.6 | Cn1cccc1C(=O)N1CCN(C(=O)Nc2ccc(N3CCC(C(=O)N4CCCCC4)CC3)cc2)CC1 [Example 14, 4-((1-methylpyrrol-2-yl)-carbonyl)-N-(4-(4-piperidin-1-yl-carbonylpiperidin-1-yl)-phenyl)-1-piperazinecarboxamide] |  |  | 
61.3 | CN1CCN(C(=O)C2CCN(c3ccc(NC(=O)N4CCN(C(=O)c5cccn5C)CC4)cc3)CC2)CC1 [Example 15, 4-((1-methylpyrrol-2-yl)-carbonyl)-N-(4-(4-(4-methylpiperazin-1-yl-carbonyl)piperidin-1-yl)-phenyl)-1-piperazinecarboxamide] |  |  | 
61.1 | Cn1cccc1C(=O)N1CCN(C(=O)Nc2ccc(N3CCC(C(=O)NCCN4CCOCC4)CC3)cc2)CC1 [Example 16, 4-((1-methylpyrrol-2-yl)-carbonyl)-N-(4-(4-(2-morpholinoethylcarbamoyl)piperidin-1-yl)-phenyl)-1-piperazinecarboxamide] |  |  | 
61.7 | Cn1cccc1C(=O)N1CCN(C(=O)Nc2ccc(N3CCC(C(=O)NCc4cccnc4)CC3)cc2)CC1 [Example 17, 4-((1-methylpyrrol-2-yl)-carbonyl)-N-(4-(4-(pyridin-3-ylmethylcarbamoyl)piperidin-1-yl)-phenyl)-1-piperazinecarboxamide] |  |  | 
